These results are taken from US20250152616A1, “COMPOSITIONS FOR AND METHODS OF TREATING, PREVENTING, AND/OR MITIGATING PAIN” (Duke University, priority 2022, published 2025).

Assay [1] relates to dissociated DRG neurons. Nature of the assay: Fura-2 calcium imaging of dissociated DRG neurons stimulated with capsaicin. The assay is classed as cell-based, mouse. Conditions: NGF 200 ng/mL 24 hr vs no NGF; capsaicin 100 nM. From the text:
DRG were isolated from mice using a modified version of the previously described protocol (Perner C, et al. (2021) STAR Protoc. 2:100333). Briefly, mice were euthanized and dosed in 70% ethanol to prevent fur contamination. Mice were positioned prone, and an incision was made along the spine from the neck to the base of the tail. Under a dissecting microscope, the surrounding soft tissue of the spinal column was removed from the dorsal side by Friedman-Pearson Rongeurs (Fine Science Tools, Foster City, CA, Cat #16021-14) from the mid thoracic region to the lumbosacral joint. The vertebral bone surrounding the DRG was gently crushed and removed with rongeurs exposing the spinal cord. The DRG were carefully extracted near the foramen between the vertebral levels. L3 and L4 DRG were collected for analyses. Dissected DRG were placed directly into ice-cold DMEM-F12 medium (ThermoFisher, Cat #11320033) for in vitro culture, Trizol (ThermoFisher, Cat #15596018) for PCR analyses, or 4% PFA for histology. For cell culture experiments, collected DRG were digested in digestion solution comprised of collagenase type II (Worthington, Lakewood, NJ, Cat #LS004176) and dispase (1.5 mg/mL each) dissolved in DMEM/F12. DRG were agitated in a digestion solution on an orbital shaker at 60 rpm and 37° C. for 20 minutes and repeated thrice with fresh digestion solution. Next, the digestion solution was replaced with trypsin-EDTA (0.025%) in DMEM/F12 and incubated for an additional 15 min to disrupt the remaining cell-to-cell adhesions. The solution was then replaced with DMEM/F12 and FBS (1:3) to neutralize trypsin. DRG were triturated to create a cell suspension and gently layered onto 15% bovine serum albumin (BSA) solution without mixing and centrifuged for 6 min at 280 g with minimal acceleration and no deceleration to separate non-neuronal cells and debris (Owen D E, et al. (2012) Methods Mol Biol. 846:179-187). […]
Intracellular cytosolic Ca^2+ was evaluated by Fura-2 loaded DRG neurons (Khomula E V, et al. (2019) J Neurosci. 39:7061-7073). […]

Assay [2] has as its system dissociated DRG neurons. Nature of the assay: FluoVolt membrane potential imaging of dissociated DRG neurons. Conditions: NGF exposure 1 day; capsaicin stimulation. The assay is classed as cell-based, mouse. The source says: DRG were isolated from mice using a modified version of the previously described protocol (Perner C, et al. (2021) STAR Protoc. 2:100333). Briefly, mice were euthanized and dosed in 70% ethanol to prevent fur contamination. Mice were positioned prone, and an incision was made along the spine from the neck to the base of the tail. Under a dissecting microscope, the surrounding soft tissue of the spinal column was removed from the dorsal side by Friedman-Pearson Rongeurs (Fine Science Tools, Foster City, CA, Cat #16021-14) from the mid thoracic region to the lumbosacral joint. The vertebral bone surrounding the DRG was gently crushed and removed with rongeurs exposing the spinal cord. The DRG were carefully extracted near the foramen between the vertebral levels. L3 and L4 DRG were collected for analyses. Dissected DRG were placed directly into ice-cold DMEM-F12 medium (ThermoFisher, Cat #11320033) for in vitro culture, Trizol (ThermoFisher, Cat #15596018) for PCR analyses, or 4% PFA for histology. For cell culture experiments, collected DRG were digested in digestion solution comprised of collagenase type II (Worthington, Lakewood, NJ, Cat #LS004176) and dispase (1.5 mg/mL each) dissolved in DMEM/F12. […]
DRG neuron potential changes were evaluated with FluoVolt, a voltage sensitive indicator dye (ThermoFisher, Cat #F10488). […]

Assay [3] deals with TRPV1. Nature of the assay: Immunofluorescence staining of TRPV1 in cultured DRG neurons. The assay is classed as cell-based, mouse. Conditions: NGF 200 ng/mL, 1 day incubation, DRG neurons from unfractured mice. The method, then: To culture DRG neurons, culture media composed of Neurobasal-A medium (ThermoFisher, Cat #10888022), 2% B27 supplement (ThermoFisher, Cat #17504044), 1% glutamax (ThermoFisher, Cat #35050061), and penicillin/streptomycin (10000 U/mL, 1% v/v, ThermoFisher, Cat #15140122) was used. Cells were treated with or without NGF (200 ng/mL) for 24 hr prior to immunofluorescence imaging. Cells were exposed to NGF (200 ng/mL) for 24 hr (long-term) for calcium and FluoVolt imaging. Cells were cultured on custom-made glass surface with silicone wells. Briefly, cover slides (#1 thickness) were cleaned by agitating in 0.5 M NaOH for 30 minutes followed by subsequent rinsing in dH2O followed by 100% ethanol and air-dried. Wells were produced in cured polydimethylsiloxane (PDMS, Sylgard 184, Ellsworth Adhesives, Germantown, WI) with a 8-mm biopsy punch and bonding to the cover slides. […]
Sections were heated for antigen retrieval in citrate buffer (MilliporeSigma, Cat #C9999) for 20 min, permeabilized in 0.1% Triton X-100 in PBS for 10 min, followed by blocking for 1 hr in blocking solution comprised of 3% BSA, 0.26 M glycine, 5% normal donkey serum in Tris buffered saline (TBS) at room temperature. […] Fluorescence intensity was quantified by ImageJ software and presented in arbitrary units.

Assay [4] concerns the target T1, ADORA2B (Mus musculus, UniProt Q60614).
T1 construct: endogenous in cells; host or cells: primary mouse bone marrow mesenchymal stromal cells (BM-MSCs), passage 1-2
T1 sequence (Q60614 1-332): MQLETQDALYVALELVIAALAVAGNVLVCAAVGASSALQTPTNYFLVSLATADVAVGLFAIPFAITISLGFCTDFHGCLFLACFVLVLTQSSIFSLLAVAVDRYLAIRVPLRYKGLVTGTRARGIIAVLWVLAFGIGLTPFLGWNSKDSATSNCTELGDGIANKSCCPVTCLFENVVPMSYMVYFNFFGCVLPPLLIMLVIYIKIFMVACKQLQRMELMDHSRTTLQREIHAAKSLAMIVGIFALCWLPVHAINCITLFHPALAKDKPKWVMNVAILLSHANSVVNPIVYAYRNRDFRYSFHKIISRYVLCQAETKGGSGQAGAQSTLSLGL
Nature of the assay: RT-qPCR of osteogenic genes in BM-MSCs with ADORA2B inhibitor. It counts as cell-based. The following applies: BM-MSCs with adenosine 30 μg/mL plus PSB 603, 14 days, vs vehicle DMSO. The method, then: MSCs were isolated as previously described with some modifications (Shih Y B, et al. (2019) Sci Adv. 5:eaax1387). Briefly, the femurs, tibiae, vertebrae of mice were harvested, crushed with pestle and mortar in harvest buffer (1% v/v FBS in PBS) to release bone marrow (BM) tissue, filtered through a 40-μm cell strainer, and centrifuged at 200 rcf. Cells were seeded in a 24-well plate at a cell density of 1 million cells/cm^2 in growth media (GM) containing α-MEM, FBS (10% v/v, ThermoFisher, Cat #16000044), penicillin/streptomycin (10000 U/mL; 1% v/v) and cultured in humidified incubator (37° C., 5% CO2). The medium was replaced after 3 days and further cultured for 6 days before passage. […]
Cells, DRG, or bone/marrow tissues were analyzed for gene expression by quantitative real-time polymerase chain reaction (RT-qPCR). […] Quantitative PCR was performed with iTaq Universal SYBR green reagent (Bio-Rad, Cat #1725124) with denaturation at 95° C. for 30 sec for one cycle, and amplification (denaturation+annealing/extension) at 95° C. for 5 sec and 60° C. for 30 sec for 40 cycles on a polymerase chain reaction (PCR) cycler (Bio-Rad, CFX96 Touch). […]
The expression level of each target gene was normalized to the housekeeping gene and to their respective controls and presented as fold change expressed as 2^−ΔΔCt values. […]
A general note: In qPCR the cycle at which signal appears reflects the starting amount.

Assay [5] addresses T2, ADORA1 (Mus musculus, UniProt Q60612).
T2 construct: endogenous in cells; host or cells: primary dissociated mouse L3-L4 DRG neurons
T2 sequence (Q60612 1-326): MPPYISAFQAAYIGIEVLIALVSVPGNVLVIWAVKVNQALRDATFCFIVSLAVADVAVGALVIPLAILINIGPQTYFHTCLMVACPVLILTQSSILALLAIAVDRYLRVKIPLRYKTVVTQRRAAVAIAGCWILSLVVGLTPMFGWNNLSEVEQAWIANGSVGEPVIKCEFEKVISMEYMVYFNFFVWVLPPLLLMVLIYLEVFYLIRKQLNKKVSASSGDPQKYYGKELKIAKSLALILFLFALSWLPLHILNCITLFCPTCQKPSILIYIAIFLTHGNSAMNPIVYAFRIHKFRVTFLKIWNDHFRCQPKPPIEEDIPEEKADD
Description: Fura-2 calcium imaging of NGF-exposed, adenosine-treated DRG neurons with ADORA1 inhibitor. The assay is classed as cell-based. The following applies: NGF-exposed DRG treated with adenosine 5 μM plus DPCPX 100 nM; capsaicin 100 nM; vehicle DMSO.
Description: DRG were isolated from mice using a modified version of the previously described protocol (Perner C, et al. (2021) STAR Protoc. 2:100333). Briefly, mice were euthanized and dosed in 70% ethanol to prevent fur contamination. Mice were positioned prone, and an incision was made along the spine from the neck to the base of the tail. Under a dissecting microscope, the surrounding soft tissue of the spinal column was removed from the dorsal side by Friedman-Pearson Rongeurs (Fine Science Tools, Foster City, CA, Cat #16021-14) from the mid thoracic region to the lumbosacral joint. The vertebral bone surrounding the DRG was gently crushed and removed with rongeurs exposing the spinal cord. The DRG were carefully extracted near the foramen between the vertebral levels. L3 and L4 DRG were collected for analyses. […] For cell culture experiments, collected DRG were digested in digestion solution comprised of collagenase type II (Worthington, Lakewood, NJ, Cat #LS004176) and dispase (1.5 mg/mL each) dissolved in DMEM/F12. DRG were agitated in a digestion solution on an orbital shaker at 60 rpm and 37° C. for 20 minutes and repeated thrice with fresh digestion solution. […]

In the case of “NGF: nerve growth factor, used as model molecule for in vitro sensitization of DRG neurons”, the “functional responses of DRG neurons to capsaicin (Fura-2 intensity)” value in assay [1] is listed as “increased”. Further, the “membrane potential of DRG neurons (FluoVolt)” value in assay [2] was “increased”. The “TRPV1 receptor expression in TUBB3-positive neurons” value in assay [3] was “significantly increased”.

On to `CCCn1c(=O)[nH]c2nc(-c3ccc(S(=O)(=O)N4CCN(c5ccc(Cl)cc5)CC4)cc3)[nH]c2c1=O` [PSB 603], for which the “adenosine mediated upregulation of osteogenic markers (Runx2, Sp7, Ibsp)” value in assay [4] is on record as “attenuated”.

On to `CCCn1c(=O)c2[nH]c(C3CCCC3)nc2n(CCC)c1=O` [DPCPX, 8-Cyclopentyl-1,3-dipropylxanthine], for which the “average and peak fluorescence intensity vs vehicle control lacking DPCPX” value in assay [5] is recorded as “increase”.
